Reference: patent US9763445B2, “Safened herbicidal compositions comprising a pyridine carboxylic acid herbicide” (Dow AgroSciences, LLC, priority 2014, dated 2017)

Legend:
winter rape (BRSNW) = assay: Postemergence greenhouse trial, % visual injury on winter rape; type: in vivo, Brassica napus; conditions: Brassica napus, post-emergence, BRSNW, applied alone, read-out: % visual injury, Ob
Description: (§1) Seeds of the desired test plant species were planted in Sun Gro MetroMix® 306 planting mixture, which typically has a pH of 6.0 to 6.8 and an organic matter content of about 30 percent, in plastic pots with a surface area of 103.2 square centimeters (cm^2). When required to ensure good germination and healthy plants, a fungicide treatment and/or other chemical or physical treatment was applied. The plants were grown for 7-36 days (d) in a greenhouse with an approximate 14-hour (h) photoperiod which was maintained at about 23° C. during the day and 22° C. during the night. Nutrients and water were added on a regular basis and supplemental lighting was provided with overhead metal halide 1000-Watt lamps as necessary. The plants were employed for testing when they reached the second or third true leaf stage.
(§2) Weighed amounts of technical material were dissolved in a volume of 97:3 volume per volume (v/v) acetone/dimethyl sulfoxide (DMSO) to stock solutions. […] The concentrated stock solutions were diluted with an aqueous mixture of 1.5% v/v of Agri-dex crop oil concentrate to provide the appropriate application rates. Compound requirements are based upon a 12 milliliter (mL) application volume at a rate of 187 liters per hectare (L/ha). Stocks solutions of the safeners were prepared following the same procedure. Spray solutions of the safeners and experimental compound mixtures were prepared by adding the stock solutions to the appropriate amount of dilution solution to form a 12 mL spray solution in two-way combinations. Formulated compounds were applied to the plant material with an overhead Mandel track sprayer equipped with 8002E nozzles calibrated to deliver 187 L/ha over an application area of 0.503 square meters (m^2) at a spray height of 18 inches (43 centimeters (cm)) above average plant canopy. Control plants were sprayed in the same manner with the solvent blank. All herbicide application (component a) rates are in g ae/ha and all safener (component b) rates are in g ai/ha.
(§3) The treated plants and control plants were placed in a greenhouse as described above and watered by sub-irrigation to prevent wash-off of the test compounds. After 20-22 d, the condition of the test plants as compared with that of the control plants was determined visually and scored on a scale of 0 to 100 percent where 0 corresponds to no injury and 100 corresponds to complete kill. The condition of the test plants was compared with that of the control plants as determined visually and scored on a scale of 0 to 100 percent, where 0 corresponds to no injury and 100 corresponds to complete kill. Colby's equation was used to determine the herbicidal effects expected from the mixtures.
(§4) The safener cloquintocet-mexyl was combined with compound 1, compound 2, compound 4, compound 5, and compound 6, and applied to corn/maize (ZEAMX) and spring wheat (TRZAS) and the phytotoxicity of the herbicidal compositions was measured. In addition, the efficacy of the herbicidal composition on velvetleaf (ABUTH, Abutilon theophrasti), pigweed (AMARE, Amaranthus retroflexus), winter rape (BRSNW, Brassica napus), lambsquarters (CHEAL, Chenopodium album), thistle (CIRAR, Cirsium arvense), nutsedge (CYPES, Cyperus esculentus), poinsettia (EPHHL, Euphorbia heterophylla), wild buckwheat (POLCO, Polygonum convolvulus), giant foxtail (SETFA, Setaria faberi), and chickweed (STEME, Stellaria media) was evaluated. […]

wild pansy (VIOTR) = assay: Postemergence greenhouse trial, % visual injury on wild pansy; type: in vivo, Viola tricolor; conditions: VIOTR, applied alone
Description: as §1, §2
as §3, with “mixtures. […]” for “mixtures.”

pigweed (AMARE) = assay: Postemergence greenhouse trial, % visual injury on pigweed; type: in vivo, Amaranthus retroflexus; conditions: AMARE; for % visual injury, Ob: CQC-m 0 g/ha
Description: as §1, §2, §3, §4
The safener cloquintocet-acid and a number of agriculturally acceptable esters and salts (-mexyl, -dimethylammonium salt and -triethylammonium salt) were combined in varying ratios with compound 1 and applied to spring wheat (TRZAS), winter wheat (TRZAW), and spring barley (HORVS), and the phytotoxicity of the herbicidal compositions was measured. […]

wild mustard (SINAR) = assay: Postemergence greenhouse trial, % visual injury on wild mustard; type: in vivo, Sinapis arvensis; conditions: Brassica, post-emergence, SINAR, applied alone, read-out: % visual injury, Ob
Description: as §1, §2
as §3, with “mixtures. […]” for “mixtures.”

kochia (KCHSC) = assay: Postemergence greenhouse trial, % visual injury on kochia; type: in vivo, Kochia scoparia; conditions: Bassia scoparia, post-emergence, KCHSC, applied alone, read-out: % visual injury, Ob
Description: as §1, §2
as §3, with “mixtures. […]” for “mixtures.”

common poppy (PAPRH) = assay: Postemergence greenhouse trial, % visual injury on common poppy; type: in vivo, Papaver rhoeas; conditions: Papaver rhoeas, post-emergence, PAPRH, applied alone, read-out: % visual injury, Ob
Description: as §1, §2
as §3, with “mixtures. […]” for “mixtures.”

spring barley (HORVS) = assay: Postemergence greenhouse trial, % visual injury on spring barley; type: in vivo, Hordeum vulgare; conditions: HORVS, CQC-m 0 g/ha
Description: as §1, §2, §3
(§5) The safener cloquintocet-mexyl was combined with compound 1, compound 2, compound 3, compound 7, compound 8, compound 9, compound 10, compound 11, compound 12, compound 13, compound 14, compound 15, compound 16, compound 17, compound 18, compound 19, and compound 20, and applied to spring wheat (TRZAS), winter wheat (TRZAW), and spring barley (HORVS) and the phytotoxicity of the herbicidal compositions was measured. […]

Russian thistle (SASKR) = assay: Postemergence greenhouse trial, % visual injury on Russian thistle; type: in vivo, Salsola kali; conditions: SASKR, CQC-m 0 g/ha
spring wheat (TRZAS) = assay: Postemergence greenhouse trial, % visual injury on spring wheat; type: in vivo, Triticum aestivum; conditions: TRZAS, CQC-m 0 g/ha
Description: as §1, §2, §3
The safener cloquintocet-mexyl was combined with compound 1, compound 2, compound 4, compound 5, and compound 6, and applied to corn/maize (ZEAMX) and spring wheat (TRZAS) and the phytotoxicity of the herbicidal compositions was measured. In addition, the efficacy of the herbicidal composition on velvetleaf (ABUTH, Abutilon theophrasti), pigweed (AMARE, Amaranthus retroflexus), winter rape (BRSNW, Brassica napus), lambsquarters (CHEAL, Chenopodium album), thistle (CIRAR, Cirsium arvense), nutsedge (CYPES, Cyperus esculentus), poinsettia (EPHHL, Euphorbia heterophylla), wild buckwheat (POLCO, Polygonum convolvulus), giant foxtail (SETFA, Setaria faberi), and chickweed (STEME, Stellaria media) was evaluated.
as §5

cleavers (GALAP) = assay: Postemergence greenhouse trial, % visual injury on cleavers; type: in vivo, Galium aparine; conditions: CQC-m 0 g/ha
Description: as §1, §2, §3, §5

SMILES: Nc1c(F)c(-c2ccc3cc[nH]c3c2)nc(C(=O)O)c1Cl [compound 16]
- plant injury at 4.375 g/ha (winter rape (BRSNW); 4.375 g/ha): 30%
- plant injury at 8.75 g/ha (winter rape (BRSNW); 8.75 g/ha): 40%
- plant injury at 17.5 g/ha (winter rape (BRSNW); 17.5 g/ha): 65%
- plant injury at 35 g/ha (winter rape (BRSNW); 35 g/ha): 70%
- plant injury at 70 g/ha (winter rape (BRSNW); 70 g/ha): 90%
- % visual injury, Ob (wild pansy (VIOTR); 4.375 g/ha): 10%
- % visual injury, Ob (wild pansy (VIOTR); 8.75 g/ha): 10%
- % visual injury, Ob (wild pansy (VIOTR); 17.5 g/ha): 20%
- % visual injury, Ob (wild pansy (VIOTR); 35 g/ha): 30%
- % visual injury, Ob (wild pansy (VIOTR); 70 g/ha): 40%
- pest or weed control at 4.375 g/ha (pigweed (AMARE); Amaranthus retroflexus, post-emergence, 4.375 g/ha, applied alone, read-out: % visual injury, Ob): 70%
- pest or weed control at 8.75 g/ha (pigweed (AMARE); Amaranthus retroflexus, post-emergence, 8.75 g/ha, applied alone, read-out: % visual injury, Ob): 80%
- pest or weed control at 17.5 g/ha (pigweed (AMARE); Amaranthus retroflexus, post-emergence, 17.5 g/ha, applied alone, read-out: % visual injury, Ob): 85%
- pest or weed control at 35 g/ha (pigweed (AMARE); Amaranthus retroflexus, post-emergence, 35 g/ha, applied alone, read-out: % visual injury, Ob): 100%
- pest or weed control at 70 g/ha (pigweed (AMARE); Amaranthus retroflexus, post-emergence, 70 g/ha, applied alone, read-out: % visual injury, Ob): 100%
- pest or weed control at 4.375 g/ha (wild mustard (SINAR); 4.375 g/ha): 90%
- pest or weed control at 8.75 g/ha (wild mustard (SINAR); 8.75 g/ha): 93%
- pest or weed control at 17.5 g/ha (wild mustard (SINAR); 17.5 g/ha): 95%
- pest or weed control at 35 g/ha (wild mustard (SINAR); 35 g/ha): 100%
- pest or weed control at 70 g/ha (wild mustard (SINAR); 70 g/ha): 100%
- pest or weed control at 4.375 g/ha (kochia (KCHSC); 4.375 g/ha): 60%
- pest or weed control at 8.75 g/ha (kochia (KCHSC); 8.75 g/ha): 70%
- pest or weed control at 17.5 g/ha (kochia (KCHSC); 17.5 g/ha): 85%
- pest or weed control at 35 g/ha (kochia (KCHSC); 35 g/ha): 90%
- pest or weed control at 70 g/ha (kochia (KCHSC); 70 g/ha): 90%
- pest or weed control at 4.375 g/ha (common poppy (PAPRH); 4.375 g/ha): 70%
- pest or weed control at 8.75 g/ha (common poppy (PAPRH); 8.75 g/ha): 70%
- pest or weed control at 17.5 g/ha (common poppy (PAPRH); 17.5 g/ha): 100%
- pest or weed control at 35 g/ha (common poppy (PAPRH); 35 g/ha): 100%
- pest or weed control at 70 g/ha (common poppy (PAPRH); 70 g/ha): 100%

SMILES: C=Cc1c(C(=O)OC)nc(-c2ccc3cc[nH]c3c2F)c(F)c1N [compound 14]
- % visual injury, Ob (spring barley (HORVS); compound 4.380 g/ha): 0%
- % visual injury, Ob (spring barley (HORVS); compound 8.75 g/ha): 0%
- % visual injury, Ob (spring barley (HORVS); compound 17.5 g/ha): 10%
- % visual injury, Ob (spring barley (HORVS); compound 35 g/ha): 20%
- % visual injury, Ob (spring barley (HORVS); compound 70 g/ha): 40%
- % visual injury, Ob (pigweed (AMARE); compound 4.380 g/ha): 10%
- % visual injury, Ob (pigweed (AMARE); compound 8.75 g/ha): 10%
- % visual injury, Ob (pigweed (AMARE); compound 17.5 g/ha): 20%
- % visual injury, Ob (Russian thistle (SASKR); compound 4.380 g/ha): 0%
- % visual injury, Ob (Russian thistle (SASKR); compound 8.75 g/ha): 10%
- % visual injury, Ob (Russian thistle (SASKR); compound 17.5 g/ha): 50%
- % visual injury, Ob (Russian thistle (SASKR); compound 35 g/ha): 60%
- % visual injury, Ob (Russian thistle (SASKR); compound 70 g/ha): 70%
- % visual injury, Ob (spring wheat (TRZAS); compound 4.380 g/ha): 0%
- % visual injury, Ob (spring wheat (TRZAS); compound 8.75 g/ha): 0%
- % visual injury, Ob (spring wheat (TRZAS); compound 17.5 g/ha): 0%
- % visual injury, Ob (spring wheat (TRZAS); compound 35 g/ha): 10%
- % visual injury, Ob (spring wheat (TRZAS); compound 70 g/ha): 30%
- % visual injury, Ob (cleavers (GALAP); compound 4.380 g/ha): 10%
- % visual injury, Ob (cleavers (GALAP); compound 8.75 g/ha): 10%
- % visual injury, Ob (cleavers (GALAP); compound 17.5 g/ha): 20%
- % visual injury, Ob (cleavers (GALAP); compound 35 g/ha): 30%
- % visual injury, Ob (cleavers (GALAP); compound 70 g/ha): 60%
